Test results from ChEMBL document CHEMBL1909046, “DrugMatrix in vitro pharmacology data”.

What was measured:
[1] = DRUGMATRIX: beta-Lactamase enzyme inhibition (substrate: Nitrocefin); set-up: species or system Bacillus cereus; conditions: Not Active = under 50% inhibition at 10 µM
[2] = target: Sigma non-opioid intracellular receptor 1 (Homo sapiens, UniProt Q99720); experiment: DRUGMATRIX: Sigma1 radioligand binding (ligand: [3H] Haloperidol); assay type: cell membranes, Jurkat, Membrane; conditions: jurkat; Not Active = under 50% inhibition at 10 µM
Sequence of Sigma non-opioid intracellular receptor 1 (Q99720 whole entry): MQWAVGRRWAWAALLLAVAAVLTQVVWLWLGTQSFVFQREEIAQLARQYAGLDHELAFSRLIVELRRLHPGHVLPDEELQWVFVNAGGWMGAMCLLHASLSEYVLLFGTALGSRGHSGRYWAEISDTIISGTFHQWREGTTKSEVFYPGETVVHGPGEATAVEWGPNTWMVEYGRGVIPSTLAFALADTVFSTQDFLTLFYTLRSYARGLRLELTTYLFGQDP

[3] = target: C-C chemokine receptor type 5 (Homo sapiens, UniProt P51681); assay type: cell membranes, HEK293, Membrane; conditions: hek293; note: in other assays of this panel Not Active means under 50% inhibition at 10 µM
Sequence of C-C chemokine receptor type 5 (P51681 whole entry): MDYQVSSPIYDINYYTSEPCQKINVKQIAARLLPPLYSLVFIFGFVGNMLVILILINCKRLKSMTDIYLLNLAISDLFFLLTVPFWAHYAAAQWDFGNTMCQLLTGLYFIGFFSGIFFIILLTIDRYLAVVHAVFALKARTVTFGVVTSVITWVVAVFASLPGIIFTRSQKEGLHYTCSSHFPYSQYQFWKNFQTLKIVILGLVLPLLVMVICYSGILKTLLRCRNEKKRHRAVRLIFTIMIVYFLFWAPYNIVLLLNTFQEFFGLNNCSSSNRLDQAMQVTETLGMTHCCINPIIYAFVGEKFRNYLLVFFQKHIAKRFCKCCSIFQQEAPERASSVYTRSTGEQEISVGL

[4] = target: T1, Muscarinic acetylcholine receptor M5 (Homo sapiens, UniProt P08912); assay type: cell membranes, CHO-K1, Membrane; note: in other assays of this panel Not Active means under 50% inhibition at 10 µM
T1 sequence (P08912 whole entry): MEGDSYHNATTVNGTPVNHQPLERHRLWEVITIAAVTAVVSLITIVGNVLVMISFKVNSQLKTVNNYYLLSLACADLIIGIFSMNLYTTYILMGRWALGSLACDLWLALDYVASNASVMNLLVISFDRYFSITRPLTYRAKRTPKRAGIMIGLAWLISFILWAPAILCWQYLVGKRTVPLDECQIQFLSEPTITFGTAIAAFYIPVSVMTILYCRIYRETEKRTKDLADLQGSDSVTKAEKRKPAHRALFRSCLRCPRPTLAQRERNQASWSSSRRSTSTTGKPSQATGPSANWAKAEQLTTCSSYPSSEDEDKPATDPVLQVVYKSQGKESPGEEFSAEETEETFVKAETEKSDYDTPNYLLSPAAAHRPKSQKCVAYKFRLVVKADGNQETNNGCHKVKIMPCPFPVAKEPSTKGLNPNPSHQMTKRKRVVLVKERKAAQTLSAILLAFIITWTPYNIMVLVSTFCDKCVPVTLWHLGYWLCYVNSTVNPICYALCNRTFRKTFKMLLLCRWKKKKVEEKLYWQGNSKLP

[5] = target: T2, Neuropeptide Y receptor type 1 (Homo sapiens, UniProt P25929); assay type: cell membranes, Membrane; conditions: sk-n-mc; note: in other assays of this panel Not Active means under 50% inhibition at 10 µM
T2 sequence (P25929 whole entry): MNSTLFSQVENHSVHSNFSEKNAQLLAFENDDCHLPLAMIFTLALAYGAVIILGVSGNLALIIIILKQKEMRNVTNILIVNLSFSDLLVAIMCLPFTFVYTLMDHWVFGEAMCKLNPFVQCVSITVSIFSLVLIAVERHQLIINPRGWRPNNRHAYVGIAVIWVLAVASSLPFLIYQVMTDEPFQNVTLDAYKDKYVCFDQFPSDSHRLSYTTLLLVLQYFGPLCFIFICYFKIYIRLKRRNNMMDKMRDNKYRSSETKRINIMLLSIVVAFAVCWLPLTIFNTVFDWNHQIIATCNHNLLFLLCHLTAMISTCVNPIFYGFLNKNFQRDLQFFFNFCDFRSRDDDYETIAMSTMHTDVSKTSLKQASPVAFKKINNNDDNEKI

[6] = DRUGMATRIX: Phosphodiesterase PDE3 enzyme inhibition (substrate: [3H]cAMP + cAMP); assay type: tissue-based, Homo sapiens; conditions: platelet; Not Active = under 50% inhibition at 10 µM
[7] = target: Tyrosine-protein kinase Lck (Homo sapiens, UniProt P06239); experiment: DRUGMATRIX: Protein Tyrosine Kinase, LCK enzyme inhibition (substrate: Poly(Glu:Tyr)); assay type: cell-based, Insect cells; conditions: insect cells; Not Active = under 50% inhibition at 10 µM
Sequence of Tyrosine-protein kinase Lck (P06239 whole entry): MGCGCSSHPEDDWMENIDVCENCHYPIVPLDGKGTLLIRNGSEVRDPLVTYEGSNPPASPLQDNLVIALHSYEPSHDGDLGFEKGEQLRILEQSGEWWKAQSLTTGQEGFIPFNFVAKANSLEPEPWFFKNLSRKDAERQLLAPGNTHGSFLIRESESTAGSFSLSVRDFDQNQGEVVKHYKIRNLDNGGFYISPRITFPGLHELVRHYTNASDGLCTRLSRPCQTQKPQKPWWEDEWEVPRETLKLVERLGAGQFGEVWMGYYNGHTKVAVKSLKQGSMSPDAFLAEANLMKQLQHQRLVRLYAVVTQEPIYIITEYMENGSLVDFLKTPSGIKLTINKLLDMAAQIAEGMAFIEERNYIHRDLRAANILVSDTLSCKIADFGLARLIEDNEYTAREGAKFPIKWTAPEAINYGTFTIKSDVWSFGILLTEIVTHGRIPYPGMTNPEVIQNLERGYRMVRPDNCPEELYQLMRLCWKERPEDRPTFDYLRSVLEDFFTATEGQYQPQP

Compound	IC50 [1]	Ki [1]	IC50 [2]	IC50 [3]	IC50 ([4]; cho-k1)	IC50 [5]	IC50 [6]	Ki [6]	IC50 [7]	IC50 ([4]; read-out: IC50)	Ki ([4]; read-out: Ki)	Ki [2]	Ki [3]	Ki ([4]; cho-k1)	Ki [5]	Ki [7]
NC(N)=Nc1nc(CSCCC(N)=NS(N)(=O)=O)cs1 [FAMOTIDINE]	Not Active	Not Active	Not Active	Not Active	Not Active	Not Active	Not Active	Not Active	Not Active	–	–	–	–	–	–	–
CC(C)(c1ccc(O)cc1)c1ccc(O)cc1 [BISPHENOL A]	Not Active	Not Active	Not Active	Not Active	Not Active	Not Active	Not Active	Not Active	Not Active	–	–	–	–	–	–	–
c1ccc2sc(SSc3nc4ccccc4s3)nc2c1 [BENZOTHIAZYL DISULFIDE]	Not Active	Not Active	Not Active	Not Active	Not Active	Not Active	Not Active	Not Active	Not Active	–	–	–	–	–	–	–
CC(=O)Nc1ccc2c(c1)Cc1ccccc1-2 [2-ACETYLAMINOFLUORENE]	Not Active	Not Active	Not Active	Not Active	Not Active	Not Active	Not Active	Not Active	Not Active	–	–	–	–	–	–	–
Cc1cc(C(C)(C)C)c(O)c(C)c1CC1=NCCN1 [OXYMETAZOLINE]	Not Active	Not Active	Not Active	Not Active	–	Not Active	Not Active	Not Active	Not Active	1330 nM	957 nM	–	–	–	–	–
c1ccc(Cn2ccnc2)cc1	Not Active	Not Active	Not Active	Not Active	Not Active	Not Active	Not Active	Not Active	Not Active	–	–	–	–	–	–	–
Nc1ccc(Cc2ccc(N)cc2)cc1	Not Active	Not Active	Not Active	Not Active	Not Active	Not Active	Not Active	Not Active	Not Active	–	–	–	–	–	–	–
CC(N)Cc1c[nH]c2ccc(OCc3cccs3)cc12 (centres undefined) [BW-723C86]	Not Active	Not Active	Not Active	Not Active	Not Active	Not Active	Not Active	Not Active	Not Active	–	–	–	–	–	–	–
CCO [ALCOHOL]	Not Active	Not Active	Not Active	Not Active	Not Active	Not Active	Not Active	Not Active	Not Active	–	–	–	–	–	–	–
CC[C@H]1OC(=O)[C@H](C)[C@@H](O[C@H]2C[C@@](C)(OC)[C@@H](O)[C@H](C)O2)[C@H](C)[C@@H](O[C@@H]2O[C@H](C)C[C@H](N(C)C)[C@H]2O)[C@](C)(O)C[C@@H](C)C(=O)[C@H](C)[C@@H](O)[C@]1(C)O [ERYTHROMYCIN]	Not Active	Not Active	Not Active	Not Active	Not Active	Not Active	Not Active	Not Active	Not Active	–	–	–	–	–	–	–
O=C(O)CNCP(=O)(O)O [GLYPHOSATE]	Not Active	Not Active	Not Active	Not Active	Not Active	Not Active	Not Active	Not Active	Not Active	–	–	–	–	–	–	–
Nc1nc(N)c2nc(CNc3ccc(C(=O)N[C@@H](CCC(=O)O)C(=O)O)cc3)cnc2n1 [AMINOPTERIN]	Not Active	Not Active	Not Active	Not Active	Not Active	Not Active	Not Active	Not Active	Not Active	–	–	–	–	–	–	–
CC(C)Cn1cnc2c(N)nc3ccccc3c21 [IMIQUIMOD]	Not Active	Not Active	Not Active	Not Active	Not Active	Not Active	Not Active	Not Active	Not Active	–	–	–	–	–	–	–
C[N+](C)(C)CCOP(=O)([O-])OC[C@H](O)CO	Not Active	Not Active	Not Active	Not Active	Not Active	Not Active	Not Active	Not Active	Not Active	–	–	–	–	–	–	–
OC[C@H]1O[C@@H]2O[C@H]3[C@H](O)[C@@H](O)[C@@H](O[C@H]4[C@H](O)[C@@H](O)[C@@H](O[C@H]5[C@H](O)[C@@H](O)[C@@H](O[C@H]6[C@H](O)[C@@H](O)[C@@H](O[C@H]7[C@H](O)[C@@H](O)[C@@H](O[C@H]8[C@H](O)[C@@H](O)[C@@H](O[C@H]1[C@H](O)[C@H]2O)O[C@@H]8CO)O[C@@H]7CO)O[C@@H]6CO)O[C@@H]5CO)O[C@@H]4CO)O[C@@H]3CO [BETADEX]	Not Active	Not Active	Not Active	Not Active	Not Active	Not Active	Not Active	Not Active	Not Active	–	–	–	–	–	–	–
CARBOXYMETHYLCELLULOSE	Not Active	Not Active	Not Active	Not Active	Not Active	Not Active	Not Active	Not Active	Not Active	–	–	Not Active	Not Active	Not Active	Not Active	Not Active
O=C(O)COC(=O)Cc1ccccc1Nc1c(Cl)cccc1Cl [ACECLOFENAC]	Not Active	Not Active	Not Active	Not Active	Not Active	Not Active	Not Active	Not Active	Not Active	–	–	–	–	–	–	–
COc1ccc(C[C@H](N)C(=O)N[C@H]2[C@@H](O)[C@H](n3cnc4c(N(C)C)ncnc43)O[C@@H]2CO)cc1 [PUROMYCIN]	Not Active	Not Active	Not Active	Not Active	Not Active	Not Active	Not Active	Not Active	Not Active	–	–	–	–	–	–	–
O=C(O)c1ccccc1 [BENZOIC ACID]	Not Active	Not Active	Not Active	Not Active	Not Active	Not Active	Not Active	Not Active	Not Active	–	–	–	–	–	–	–
C[C@H]1C[C@H]2[C@@H]3CCC4=CC(=O)C=C[C@]4(C)[C@@]3(F)[C@@H](O)C[C@]2(C)[C@@]1(O)C(=O)CO [BETAMETHASONE]	Not Active	Not Active	Not Active	Not Active	Not Active	Not Active	Not Active	Not Active	Not Active	–	–	–	–	–	–	–
Oc1ccccc1 [PHENOL]	Not Active	Not Active	Not Active	Not Active	Not Active	Not Active	Not Active	Not Active	Not Active	–	–	–	–	–	–	–
C[C@H](C(=O)O)c1ccc2oc(-c3ccc(F)cc3)nc2c1 [FLUNOXAPROFEN]	Not Active	Not Active	Not Active	Not Active	Not Active	Not Active	Not Active	Not Active	Not Active	–	–	–	–	–	–	–
